Test results: patent US4806532A, “Inhibition of epithelial phosphate transport” (Mayo Foundation for Medical Education and Research, priority 1985, dated 1989)
Counter-ions that a name gives are not always drawn.

Tests used:
Na-Pi cotransporter [1] = assay: Na+-gradient-dependent 32Pi uptake by intestinal BBMV; type: biochemical, rat; settings: 1 mM; equilibrium; rat small intestine BBMV; control 151 ± 4
Method: (§1) The intestinal BBMV fractions were prepared from mucosa of rat small intestine of rats using the modified magnesium- precipitation method as described by B. Steiger and H. Murer [Eur. J. Biochem., 135, 95 (1983)]. This intestinal BBMV fraction is analogous to the BBMV fraction isolated from kidney. The uptake of ^32 Pi in the presence of Na^+ -gradient [Nao^+ >Nai^+ ] was determined by a rapid filtration technique similar to that employed in the transport measurements on renal BBMV. The Na^+ -gradient [Nao^+ >Nai^+ ]-dependent Pi uptake in the initial phase was measured after 30 sec. The ^32 Pi uptake at equilibrium was measured at 180 min.

Na-Pi cotransporter [2] = target: T1, Na-Pi cotransporter (Rattus norvegicus, UniProt Q9JJ09); assay: as above; type: biochemical; settings: 1 mM; for effect on initial 32P uptake by intestinal BBMV (in words): FIG. 4, Table 7; for 32Pi-phosphate uptake 30 sec: initial phase, rat small intestine BBMV, control 75 ± 3
T1 construct: The intestinal BBMV fractions were prepared from mucosa of rat small intestine; from tissue; host or cells: rat small intestine mucosa, brush border membrane vesicles
T1 sequence (Q9JJ09 1-695): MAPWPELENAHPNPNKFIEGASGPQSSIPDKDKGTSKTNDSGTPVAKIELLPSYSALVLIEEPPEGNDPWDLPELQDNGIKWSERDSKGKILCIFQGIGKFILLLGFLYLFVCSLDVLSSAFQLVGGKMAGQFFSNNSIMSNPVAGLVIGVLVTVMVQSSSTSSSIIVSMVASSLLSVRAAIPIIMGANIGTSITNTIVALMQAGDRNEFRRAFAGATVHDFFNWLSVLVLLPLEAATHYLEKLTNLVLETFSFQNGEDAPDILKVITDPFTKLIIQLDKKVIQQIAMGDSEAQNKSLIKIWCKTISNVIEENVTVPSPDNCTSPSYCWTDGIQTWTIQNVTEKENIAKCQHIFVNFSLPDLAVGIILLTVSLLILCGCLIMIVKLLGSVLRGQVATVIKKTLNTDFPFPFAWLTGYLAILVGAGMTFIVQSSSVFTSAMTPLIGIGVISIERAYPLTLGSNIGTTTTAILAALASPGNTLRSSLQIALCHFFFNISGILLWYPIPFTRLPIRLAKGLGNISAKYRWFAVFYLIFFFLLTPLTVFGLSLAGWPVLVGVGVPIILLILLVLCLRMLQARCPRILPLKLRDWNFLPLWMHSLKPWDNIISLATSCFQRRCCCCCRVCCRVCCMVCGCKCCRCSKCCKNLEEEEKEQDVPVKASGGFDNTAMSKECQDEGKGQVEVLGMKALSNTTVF
Method: as §1

[3] = Hydrolysis of phosphono-compounds (release of Pi) in the BBMV assay; settings: 1 mM; hydrolysis to release more than 5% Pi
From the text: Compounds studied in the present experiments which inhibited BBM transport of Pi without hydrolysis to release more than 5% Pi are listed in Table 1.

Structure (SMILES) | 32Pi-phosphate uptake 180 min (Na-Pi cotransporter [1]) | effect on initial 32P uptake by intestinal BBMV (in words) (Na-Pi cotransporter [2]) | 32Pi-phosphate uptake 30 sec (Na-Pi cotransporter [2]) | Note: hydrolysis [3]
O=C(O)CP(=O)(O)O [PAA, phosphonoacetic acid] | 163 ± 6 pmoles/mg protein | markedly inhibited | 51 ± 0.3 pmoles/mg protein | no
O=C(O)P(=O)(O)O [TPFA, Phosphonoformic acid, trisodium salt hexahydrate] | 146 ± 5 pmoles/mg protein | markedly inhibited | 44 ± 2 pmoles/mg protein | no
